The target in one experiment is T1, Kdr (Mus musculus, UniProt P35918).
T1 construct: specificity data for proteins generated from a library of eighteen full-length clones; biotin on random lysines (biotin-Lys-tRNA); host or cells: rabbit reticulocyte lysate, coupled transcription/translation (TnT, Promega)
Briefly: Kinase inhibitor profiling, pEY phosphorylation. The class given is biochemical. The protocol:
Proteins were produced in an in vitro transcription and translation reaction. […] The unbound components of the reaction containing endogenous kinases were removed by three washes with TT-buffer (25 mM Tris-HCl buffer pH 7.4 and 0.004% Triton), two five minutes washings with high-salt wash buffer (25 mM Tris-HCl buffer pH 7.4, 0.004% Triton, 1M NaCl and 5 mM DTT) and 3 more washes with TT-buffer. To these immobilized and purified proteins a tyrosine kinase substrate, 5 nM pEY (poly Glu-Tyr, Sigma, MO), was added in a 50 μl reaction solution containing 5 mM MgCl2, 5 mM MnCl2, 100 μM ATP, 25 mM Tris-HCl buffer pH 7.4, 0.05 mM Na3VO4, 0.004% TritonX-100, 2 mM DTT and EDTA-free protease inhibitor (Roche Molecular Biochemicals). This mixture was incubated with shaking at room temperature overnight to allow phosphorylation of the pEY substrate by the immobilized kinases. Following this incubation, 45 μl of this mixture was transferred to a streptavidin or avidin-coated NPT IPR plate coated with biotinylated anti-phosphotyrosine antibody (PY20, Zymed labs, CA) followed by incubation for 30 minutes at room temperature to allow the binding of the phosphorylated pEY substrate to the PY20 coated NPT plate. Following this binding step, 50 ng Sulfo-TAG labeled anti-phosphotyrosine in buffer containing 25 mM Tris-HCl buffer pH 7.4, 5 mM MgCl2, 0.05 mM Na3VO4, 0.004% TritonX-100, 2 mM DTT and 0.05% IgG was added followed by incubation at room temperature for 30 mm. The unbound reagents were removed by one time washing with water, and the TAG label was detected in presence of 150 μl IPR assay buffer (0.4 mM Gly-Gly buffer, pH 7.8, 1 mM EDTA, 0.1 M TPA). The ECL signals were measured using an imaging plate reader.
(§1) The unbound components of the translation reaction (including any endogenous kinases) were removed by 3 washes with TT-buffer (25 mM Tris-HCl buffer pH 7.4 and 0.004% Triton), two five minutes washes with high-salt wash buffer (25 mM Tris-HCl buffer pH 7.4, 0.004% Triton, 1M NaCl and 5 mM DTT) and 3 washes with TT-buffer. […] The mixture was incubated at room temperature for 10 mm before starting the kinase reaction by adding 25 μl of 200 μM ATP in buffer A. This mixture was incubated with intermittent shaking at room temperature for 2 hours to overnight to allow (a) phosphorylation of the pEY substrate and (b) autophosphorylation of the immobilized kinases. Autophosphorylation and phosphorylation of the pEY was measured as described in Examples 7 and 8.
(§2) The ECL signal in control wells produced by tyrosine kinases was compared to the wells containing inhibitor compounds.

The next experiment deals with T2, LCK (Homo sapiens, UniProt P06239).
T2 construct: specificity data for proteins generated from a library of eighteen full-length clones; host or cells: rabbit reticulocyte lysate, TnT coupled in vitro transcription/translation (cell-free)
T2 sequence (P06239 whole entry): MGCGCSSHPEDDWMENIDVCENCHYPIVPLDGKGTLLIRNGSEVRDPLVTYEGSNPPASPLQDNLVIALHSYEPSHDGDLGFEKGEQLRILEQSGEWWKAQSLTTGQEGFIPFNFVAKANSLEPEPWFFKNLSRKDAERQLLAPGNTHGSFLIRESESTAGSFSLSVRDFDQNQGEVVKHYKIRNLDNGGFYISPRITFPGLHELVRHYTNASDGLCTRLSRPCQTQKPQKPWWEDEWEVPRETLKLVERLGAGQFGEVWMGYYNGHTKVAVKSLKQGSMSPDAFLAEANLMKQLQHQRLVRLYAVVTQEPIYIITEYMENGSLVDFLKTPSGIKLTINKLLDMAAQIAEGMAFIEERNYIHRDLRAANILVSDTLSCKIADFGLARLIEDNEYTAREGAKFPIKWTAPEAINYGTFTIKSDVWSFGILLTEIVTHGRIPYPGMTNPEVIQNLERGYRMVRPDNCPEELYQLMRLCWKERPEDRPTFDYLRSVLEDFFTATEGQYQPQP
Briefly: Kinase inhibitor profiling, autophosphorylation. The format is biochemical. As for the experimental part: To promote autophosphorylation in these immobilized and purified proteins, Mn++ ions were added in a 50 μl reaction containing 5 mM MgCl2, 5 mM MnCl2, 100 μM ATP, 25 mM Tris-HCl buffer pH 7.4, 0.05 mM Na3VO4, 0.004% TritonX-100, 2 mM DTT and EDTA-free protease inhibitor (Roche Molecular Biochemicals). This mixture was incubated with shaking at room temperature overnight to allow autophosphorylation. Following this incubation, wells were washed 2 times with TT-buffer and 2 times with water. Following this step, 50 ng Sulfo-TAG labeled anti-phosphotyrosine in buffer containing 25 mM Tris-HCl buffer pH 7.4, 5 mM MgCl2, 0.05 mM Na3VO4, 0.004% TritonX-100, 2 mM DTT and 0.05% IgG in a final volume of 50 μl was added followed by incubation at room temperature for 45 min. The unbound reagents were removed by one time washing with water, and the TAG label was detected in presence of 150 μl IPR assay buffer (0.4 mM Gly—Gly buffer, pH 7.8, 1 mM EDTA, 0.1 M TPA). The ECL signals were measured using an imaging plate reader.
as §1, with “kinases.” for “kinases. Autophosphorylation and phosphorylation of the pEY was measured as described in Examples 7 and 8.”
as §2

T1 sequence (P35918 20-1345): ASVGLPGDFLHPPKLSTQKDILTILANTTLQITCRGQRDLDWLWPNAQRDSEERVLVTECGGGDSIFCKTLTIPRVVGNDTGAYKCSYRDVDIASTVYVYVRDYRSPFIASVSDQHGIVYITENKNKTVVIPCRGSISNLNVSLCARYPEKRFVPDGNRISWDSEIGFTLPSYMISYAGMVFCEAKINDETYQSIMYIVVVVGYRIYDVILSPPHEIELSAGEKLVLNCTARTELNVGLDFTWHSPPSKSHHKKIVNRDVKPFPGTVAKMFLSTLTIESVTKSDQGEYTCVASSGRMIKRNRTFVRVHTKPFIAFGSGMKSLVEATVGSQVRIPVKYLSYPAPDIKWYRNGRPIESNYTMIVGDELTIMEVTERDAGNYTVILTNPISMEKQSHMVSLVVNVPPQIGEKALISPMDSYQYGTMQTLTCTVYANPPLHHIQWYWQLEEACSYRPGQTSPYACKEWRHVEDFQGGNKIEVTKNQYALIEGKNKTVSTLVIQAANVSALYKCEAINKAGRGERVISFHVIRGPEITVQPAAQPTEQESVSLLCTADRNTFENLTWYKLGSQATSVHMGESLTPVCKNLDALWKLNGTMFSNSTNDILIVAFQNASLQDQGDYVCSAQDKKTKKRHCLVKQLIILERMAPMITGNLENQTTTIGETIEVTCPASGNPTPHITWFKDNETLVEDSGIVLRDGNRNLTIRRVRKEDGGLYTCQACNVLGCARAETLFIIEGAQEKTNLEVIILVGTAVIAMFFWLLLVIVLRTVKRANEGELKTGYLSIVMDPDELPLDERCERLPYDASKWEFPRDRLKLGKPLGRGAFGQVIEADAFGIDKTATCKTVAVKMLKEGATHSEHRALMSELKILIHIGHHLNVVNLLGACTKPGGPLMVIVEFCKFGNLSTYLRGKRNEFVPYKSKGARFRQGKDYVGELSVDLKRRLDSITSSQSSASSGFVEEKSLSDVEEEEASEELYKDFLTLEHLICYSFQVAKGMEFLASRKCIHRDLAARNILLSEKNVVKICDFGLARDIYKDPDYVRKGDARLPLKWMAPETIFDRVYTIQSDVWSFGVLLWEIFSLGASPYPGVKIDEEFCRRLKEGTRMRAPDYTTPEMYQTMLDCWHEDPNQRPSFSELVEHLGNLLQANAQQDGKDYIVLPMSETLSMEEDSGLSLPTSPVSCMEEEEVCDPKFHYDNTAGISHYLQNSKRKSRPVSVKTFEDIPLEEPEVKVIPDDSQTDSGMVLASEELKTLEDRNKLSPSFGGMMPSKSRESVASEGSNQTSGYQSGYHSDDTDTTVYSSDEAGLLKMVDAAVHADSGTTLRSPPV

With `Cc1ccc(-c2nn(C(C)(C)C)c3ncnc(N)c23)cc1` [PP1], at Kdr, the “Inhibition specificity towards pEY phosphorylation at 10X IC50, Kdr” value is “M (medium inhibition (“M”=between 25 to 50% of the activity remaining))”. In the case of `COc1cc2ncnc(Nc3ccc(O)cc3)c2cc1OC` [WHI-P131], the “Inhibition specificity towards Autophosphorylation at 10X IC50, LCK” value at LCK is given as “M (medium inhibition (“M”=between 25 to 50% of the activity remaining))”. Besides, the “Inhibition specificity towards pEY phosphorylation at 10X IC50, Kdr” value on Kdr is on record as “H (high inhibition (“H”=less than 25% of the activity remaining))”. In the case of `COc1cc2ncnc(Nc3ccc(Cl)cc3F)c2cc1OC` [VEGFR inhibitor], the “Inhibition specificity towards Autophosphorylation at 10X IC50, LCK” value at LCK is “L (low inhibition (“L”=between 50–75% of the activity remaining))”. Moreover, the “Inhibition specificity towards pEY phosphorylation at 10X IC50, Kdr” value at Kdr is “H (high inhibition (“H”=less than 25% of the activity remaining))”. The like results for `Cc1cc2ncc(-c3ccc(O)c(O)c3)nc2cc1C` [AG-1433] were, in that order, “H (high inhibition (“H”=less than 25% of the activity remaining))” and “H (high inhibition (“H”=less than 25% of the activity remaining))”. For the compound Erbstatin analog, the “Inhibition specificity towards Autophosphorylation at 10X IC50, LCK” value on LCK is “L (low inhibition (“L”=between 50–75% of the activity remaining))”. Take `COc1c(C=O)c(O)cc2c1C(=O)c1ccccc1C2=O` [Damnacanthal]: the “Inhibition specificity towards pEY phosphorylation at 10X IC50, Kdr” value at Kdr is reported as “H (high inhibition (“H”=less than 25% of the activity remaining))”. Regarding `CC(C)(C)c1cc(C=C(C#N)C#N)cc(Br)c1O` [AG-1024], the “Inhibition specificity towards pEY phosphorylation at 10X IC50, Kdr” value at Kdr is on record as “M (medium inhibition (“M”=between 25 to 50% of the activity remaining))”.
